PubChem BioAssay AID1963836 (Molecular Pharmacology Branch, DTP, NCI, 2024)

System: 857933-349-R-J2-PDC complex spheroid viability
Test: Anticancer human tumor 857933-349-R-J2-PDC patient-derived colon adenocarcinoma cell line growth inhibition [POLQ]
Conditions: for IC50: curve of first compound; for viability, T/C: stronger effect = lower value
Procedure, shortened: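 Complex spheroid viability model combining PDC tumour cells with endothelial (HUVEC) and MSC stromal cells. Novobiocin, ART-558 or RP6685 were tested singly and in combination with standard and investigational anticancer drugs. Each was titrated in half-log steps from near clinical Cmax, or from 10 microM where Cmax was unknown.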
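Also: spheroids exposed to compounds for seven days before readout.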

Compound: O=C(Nc1ccc(O)c(NS(=O)(=O)c2ccc(F)cc2)c1)c1ccc(-c2ccccc2)cc1 + COC1C(OC(N)=O)C(O)C(Oc2ccc3c(O)c(NC(=O)c4ccc(O)c(CC=C(C)C)c4)c(=O)oc3c2C)OC1(C)C
- IC50 (second compound 0.0316 µM): > 10000 nM
- IC50 (second compound 0.1 µM): > 10000 nM
- IC50 (second compound 0.316 µM): > 10000 nM
- IC50 (second compound 1 µM): > 10000 nM
- IC50 (second compound 3.16 µM): > 10000 nM
- IC50 (second compound 10 µM): > 10000 nM
- viability, T/C (second compound 0.0316 µM, first compound 0.0316 µM): 70.1%
- viability, T/C (second compound 0.0316 µM, first compound 0.1 µM): 105%
- viability, T/C (second compound 0.0316 µM, first compound 0.316 µM): 92.3%
- viability, T/C (second compound 0.0316 µM, first compound 1 µM): 89.2%
- viability, T/C (second compound 0.0316 µM, first compound 3.16 µM): 80.7%
- viability, T/C (second compound 0.0316 µM, first compound 10 µM): 78.6%
- viability, T/C (second compound 0.1 µM, first compound 0.0316 µM): 116%
- viability, T/C (second compound 0.1 µM, first compound 0.1 µM): 95.9%
- viability, T/C (second compound 0.1 µM, first compound 0.316 µM): 94.1%
- viability, T/C (second compound 0.1 µM, first compound 1 µM): 92.3%
- viability, T/C (second compound 0.1 µM, first compound 3.16 µM): 114%
- viability, T/C (second compound 0.1 µM, first compound 10 µM): 101%
- viability, T/C (second compound 0.316 µM, first compound 0.0316 µM): 96%
- viability, T/C (second compound 0.316 µM, first compound 0.1 µM): 85.5%
- viability, T/C (second compound 0.316 µM, first compound 0.316 µM): 65.9%
- viability, T/C (second compound 0.316 µM, first compound 1 µM): 65.5%
- viability, T/C (second compound 0.316 µM, first compound 3.16 µM): 113%
- viability, T/C (second compound 0.316 µM, first compound 10 µM): 84.1%
- viability, T/C (second compound 1 µM, first compound 0.0316 µM): 79.5%
- viability, T/C (second compound 1 µM, first compound 0.1 µM): 91.1%
- viability, T/C (second compound 1 µM, first compound 0.316 µM): 81.1%
- viability, T/C (second compound 1 µM, first compound 1 µM): 72.9%
- viability, T/C (second compound 1 µM, first compound 3.16 µM): 109%
- viability, T/C (second compound 1 µM, first compound 10 µM): 80.7%
- viability, T/C (second compound 3.16 µM, first compound 0.0316 µM): 101%
- viability, T/C (second compound 3.16 µM, first compound 0.1 µM): 86.9%
- viability, T/C (second compound 3.16 µM, first compound 0.316 µM): 113%
- viability, T/C (second compound 3.16 µM, first compound 1 µM): 99.2%
- viability, T/C (second compound 3.16 µM, first compound 3.16 µM): 85.3%
- viability, T/C (second compound 3.16 µM, first compound 10 µM): 61.5%
- viability, T/C (second compound 10 µM, first compound 0.0316 µM): 76.2%
- viability, T/C (second compound 10 µM, first compound 0.1 µM): 88.7%
- viability, T/C (second compound 10 µM, first compound 0.316 µM): 99.8%
- viability, T/C (second compound 10 µM, first compound 1 µM): 82.8%
- viability, T/C (second compound 10 µM, first compound 3.16 µM): 77.9%
- viability, T/C (second compound 10 µM, first compound 10 µM): 68.8%

Compound: CC(=O)O[C@H]1C(=O)[C@@]2(C)[C@H]([C@H](OC(=O)c3ccccc3)[C@]3(O)C[C@H](OC(=O)[C@H](O)[C@@H](NC(=O)c4ccccc4)c4ccccc4)C(C)=C1C3(C)C)[C@]1(OC(C)=O)CO[C@@H]1C[C@@H]2O + Cc1cccc(N(C)C(=O)C2C(O)CCN2c2nc(C)cc(C(F)(F)F)c2C#N)c1
- IC50 (second compound 0.0316 µM): < 9.49 nM
- IC50 (second compound 0.1 µM): < 9.49 nM
- IC50 (second compound 0.316 µM): < 9.49 nM
- IC50 (second compound 1 µM): < 9.49 nM
- IC50 (second compound 3.16 µM): 10.7 nM
- IC50 (second compound 10 µM): < 9.49 nM
- viability, T/C (second compound 0.0316 µM, first compound 0.00949 µM): 45.4%
- viability, T/C (second compound 0.0316 µM, first compound 0.03 µM): 21.2%
- viability, T/C (second compound 0.0316 µM, first compound 0.0949 µM): 10.7%
- viability, T/C (second compound 0.0316 µM, first compound 0.3 µM): 11.8%
- viability, T/C (second compound 0.0316 µM, first compound 0.949 µM): 9.59%
- viability, T/C (second compound 0.0316 µM, first compound 3 µM): 14.6%
- viability, T/C (second compound 0.1 µM, first compound 0.00949 µM): 40.1%
- viability, T/C (second compound 0.1 µM, first compound 0.03 µM): 16.9%
- viability, T/C (second compound 0.1 µM, first compound 0.0949 µM): 12.6%
- viability, T/C (second compound 0.1 µM, first compound 0.3 µM): 10.6%
- viability, T/C (second compound 0.1 µM, first compound 0.949 µM): 14.4%
- viability, T/C (second compound 0.1 µM, first compound 3 µM): 13.8%
- viability, T/C (second compound 0.316 µM, first compound 0.00949 µM): 40%
- viability, T/C (second compound 0.316 µM, first compound 0.03 µM): 19.5%
- viability, T/C (second compound 0.316 µM, first compound 0.0949 µM): 10.1%
- viability, T/C (second compound 0.316 µM, first compound 0.3 µM): 12%
- viability, T/C (second compound 0.316 µM, first compound 0.949 µM): 12.3%
- viability, T/C (second compound 0.316 µM, first compound 3 µM): 12.4%
- viability, T/C (second compound 1 µM, first compound 0.00949 µM): 47.7%
- viability, T/C (second compound 1 µM, first compound 0.03 µM): 20%
- viability, T/C (second compound 1 µM, first compound 0.0949 µM): 12.6%
- viability, T/C (second compound 1 µM, first compound 0.3 µM): 10.4%
- viability, T/C (second compound 1 µM, first compound 0.949 µM): 10.9%
- viability, T/C (second compound 1 µM, first compound 3 µM): 13.4%
- viability, T/C (second compound 3.16 µM, first compound 0.00949 µM): 54%
- viability, T/C (second compound 3.16 µM, first compound 0.03 µM): 15.1%
- viability, T/C (second compound 3.16 µM, first compound 0.0949 µM): 10.4%
- viability, T/C (second compound 3.16 µM, first compound 0.3 µM): 12.1%
- viability, T/C (second compound 3.16 µM, first compound 0.949 µM): 12.1%
- viability, T/C (second compound 3.16 µM, first compound 3 µM): 13.5%
- viability, T/C (second compound 10 µM, first compound 0.00949 µM): 35.4%
- viability, T/C (second compound 10 µM, first compound 0.03 µM): 14.5%
- viability, T/C (second compound 10 µM, first compound 0.0949 µM): 13.6%
- viability, T/C (second compound 10 µM, first compound 0.3 µM): 11.8%
- viability, T/C (second compound 10 µM, first compound 0.949 µM): 13.3%
- viability, T/C (second compound 10 µM, first compound 3 µM): 15.4%
